# Assay results: patent US8921405B2, “Compounds” (Orexo AB, priority 2009, dated 2014)
# Target: T1, recombinant human mPGES-1 (Homo sapiens, UniProt O14684)
# T1 construct: made in house; host or cells: Rosetta E. coli (membrane/microsome fraction)
# T1 sequence (O14684 1-152): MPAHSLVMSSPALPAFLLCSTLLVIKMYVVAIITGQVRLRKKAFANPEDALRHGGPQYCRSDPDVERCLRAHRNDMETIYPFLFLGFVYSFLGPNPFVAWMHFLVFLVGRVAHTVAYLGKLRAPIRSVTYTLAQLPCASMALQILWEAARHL
# Assay: mPGES-1 HTRF assay (inhibition of PGE2 formation from PGH2)
# Type: biochemical
# Conditions: HTRF assay
# Experimental: The basis of the assay used is to measure the inhibition of microsomal prostaglandin E2 synthase-1 (mPGES-1) dependent prostaglandin (PG) E2 formation from PGH2 by different compounds. Thus, the formation of PGE2 is used as signal and a lowering of this signal can be interpreted as inhibition of mPGES-1. […] Microsomes from Rosetta E. coli bacteria expressing recombinant human mPGES-1 can be derived as described below: Inoculate 5 ml LB with Amp and Chloro with bacteria from freeze culture. Incubate over night at 37° C. with 200 rpm. Thereafter, inoculate 500-800 ml LB containing Amp and Chloro with the 5 ml on culture and grow to OD640 of 0.6-0.8. Chill the culture to +4° C. before induction. Induce the culture with IPTG at a final concentration of 400 μM. Express the protein at room temp 18-23° C. with 200 rpm shaking over night. The following steps can be performed on the following day: • 1. Spin down the cells in 250 ml centrifuge flasks for 15 min at 7000 rpm • 2. Dissolve the pellet from 250 ml culture in 12.5 ml homogenization buffer • 3. Disintegrate the cells by sonication, 4×10 seconds at 35% amplitude • 4. Add 2.5 ml MgCl2 (100 mM) and DNase 12.5 μl (0.8 mg/ml) and incubate on ice for 30 min • 5. Spin down the bacteria debris and save the supernatant, 7000 rpm for 15 min • 6. Isolate the protein containing membranes in the supernatant by ultracentrifugation 45000×g for 1 hour. • 7. Discard the supernatant and dissolve the pellet in 20 mM KPi buffer and aliquot the enzyme and store aliquots at −80° C. Before each experiment is performed an aliquot of the enzyme is thawed and it can then be dissolved in 0.1 M KPi pH 7.4 buffer containing 2.5 mM GSH. 50 μl of this enzyme solution is subsequently dispensed in a 384-well plate at room temperature. 0.5 μl of the inhibitor dissolved in DMSO is thereafter added to each well and incubated for 25 minutes at room temperature. Subsequently, 2 μl of PGH2 dissolved in an appropriate solvent is added to each well and after one minute at room temperature, the acidified stop solution containing FeCl2 is added. 4 μl of the total volume is transferred to a separate plate and diluted 750-fold in two separate steps before quantification of PGE2. In order to quantitate the amount of PGE2 that has been formed, a homogenous time resolved fluorescent (HTRF) detection of PGE2 can be performed by the use of a commercially available kit from CisBio essentially according to the manufacturer's protocol. […] The sealing film is thereafter removed from the NC wells. • 5 μl Eu3+-cryptate labeled anti-PGE2 can now be added to rows 1 to 24 by using a Multidrop. • The plate can now be covered with sealing film. • The plate can now be centrifuge at 1200 rpm for 1 minute and place at 4° C. overnight. After the over night incubation the fluorescence is measured by the use of an appropriate microplate reader. […] The extent of the specific HTRF is measured as a ratio of the emission intensity at 665 nm vs. that at 620 nm. A standard curve using synthetic PGE2 is used to quantify the amount of PGE2 in unknown samples. The degree of inhibition can be calculated as percent inhibition by dividing the amount of PGE2 formed in unknown samples by the amount of PGE2 formed in control samples.
row,Compound,IC50 [nM]
1,"Cn1c(Nc2cc(CNC(=O)C(C)(C)C)ccc2Cl)nc2cc(C(=O)Nc3ccc(Br)cc3)ccc21 [Example 57, N-(4-Bromophenyl)-2-{2-chloro-5-[(tert.butylcarbonylamino)methyl]-phenylamino}-1-methylbenzimidazole-5-carboxamide]",1
2,"Cn1c(Nc2cc(CNC(=O)C3(C(F)(F)F)CC3)ccc2Cl)nc2cc(C(=O)Nc3ccc(Br)cc3)c(OCC(F)F)cc21 [Example 59, N-(4-Bromo-phenyl)-2-(2-chloro-5-{[(1-trifluoromethyl-cyclopropanecarbonyl)-amino]-methyl}-phenylamino)-6-(2,2-difluoro-ethoxy)-1-methyl-1H-benzimidazole-5-carboxylic acid amide]",2
3,"Cn1c(Nc2cc(CNC(=O)C3(C(F)(F)F)CC3)ccc2Cl)nc2cc(C(=O)NCC3CC3)c(OCC(F)F)cc21 [Example 60, N-(Cyclopropylmethyl)-2-(2-chloro-5-{[(1-trifluoromethyl-cyclopropanecarbonyl)-amino]-methyl}-phenylamino)-6-(2,2-difluoro-ethoxy)-1-methyl-1H-benzimidazole-5-carboxylic acid amide]",1
4,"Cn1c(Nc2cc(CNC(=O)C3(C(F)(F)F)CC3)ccc2Cl)nc2cc(C(=O)NCCCC(F)(F)F)c(OCC(F)F)cc21 [Example 61, N-(4,4,4-Trifluorobutyl)-2-(2-chloro-5-{[(1-trifluoromethyl-cyclopropanecarbonyl)-amino]-methyl}-phenylamino)-6-(2,2-difluoro-ethoxy)-1-methyl-1H-benzimidazole-5-carboxylic acid amide]",1

# Same assay, conditions: compound concentration of 10 μM, HTRF assay; read-out: % inhibition
row,Compound,inhibition at 10 µM [%]
1,"Cn1c(Nc2cc(CNC(=O)[C@@H]3C[C@H]3c3ccccc3)ccc2Cl)nc2cc(C(=O)Nc3ccc(Br)cc3)ccc21 [Example 39, N-(4-Bromophenyl)-2-{2-chloro-5-[(trans-2-phenylcyclopropylamido)-methyl]phenylamino}-1-methylbenzimidazole-5-carboxamide]",100
2,"Cn1c(Nc2cc(CNC(=O)C3(C)COC3)ccc2Cl)nc2cc(C(=O)Nc3ccc(Br)cc3)ccc21 [Example 40, N-(4-Bromophenyl)-2-{2-chloro-5-[(3-methyl-3-oxetanylamido)methyl]-phenylamino}-1-methylbenzimidazole-5-carboxamide]",98
3,"Cn1c(Nc2cc(CNC(=O)C3(C)CCCC3)ccc2Cl)nc2cc(C(=O)Nc3ccc(Br)cc3)ccc21 [Example 41, N-(4-Bromophenyl)-2-{2-chloro-5-[(1-methylcyclopentylamido)methyl]-phenylamino}-1-methylbenzimidazole-5-carboxamide]",100
4,"Cn1c(Nc2cc(CNC(=O)C3(C#N)CCCC3)ccc2Cl)nc2cc(C(=O)Nc3ccc(Br)cc3)ccc21 [Example 42, N-(4-Bromophenyl)-2-{2-chloro-5-[(1-cyanocyclopentylamido)methyl]-phenylamino}-1-methylbenzimidazole-5-carboxamide]",100
5,"CC(=O)NCc1ccc(Cl)c(Nc2nc3cc(C(=O)Nc4ccc(Br)cc4)ccc3n2C)c1 [Example 43, 2-[5-(Acetamidomethyl)-2-chlorophenylamino]-N-(4-bromophenyl)-1-methylbenzimidazole-5-carboxamide]",100
6,"Cn1c(Nc2cc(CNS(=O)(=O)c3cccs3)ccc2Cl)nc2cc(C(=O)Nc3ccc(Br)cc3)ccc21 [Example 44, N-(4-Bromophenyl)-2-{2-chloro-5-[(2-thienylsulfonamido)methyl]phenylamino}-1-methylbenzimidazole-5-carboxamide]",100
7,"Cn1c(Nc2cc(CNS(=O)(=O)C3CC3)ccc2Cl)nc2cc(C(=O)Nc3ccc(Br)cc3)ccc21 [Example 45, N-(4-Bromophenyl)-2-{2-chloro-5-[(cyclopropylsulfonamido)methyl]-phenylamino}-1-methylbenzimidazole-5-carboxamide]",100
8,"CCC1(C(=O)NCc2ccc(Cl)c(Nc3nc4cc(C(=O)Nc5ccc(Br)cc5)ccc4n3C)c2)CCCC1 [Example 46, N-(4-Bromophenyl)-2-{2-chloro-5-[(1-ethylcyclopentylamido)methyl]-phenylamino}-1-methylbenzimidazole-5-carboxamide]",100
9,"CSC1(C(=O)NCc2ccc(Cl)c(Nc3nc4cc(C(=O)Nc5ccc(Br)cc5)ccc4n3C)c2)CCCC1 [Example 47, N-(4-Bromophenyl)-2-{2-chloro-5-[(1-methylthiocyclopentylamido)-methyl]phenylamino}-1-methylbenzimidazole-5-carboxamide]",100
10,"Cn1c(Nc2cc(CNC(=O)C3(CC4CC4)CCCC3)ccc2Cl)nc2cc(C(=O)Nc3ccc(Br)cc3)ccc21 [Example 48, N-(4-Bromophenyl)-2-{2-chloro-5-[(1-cyclopropylmethylcyclopentyl-amido)methyl]phenylamino}-1-methylbenzimidazole-5-carboxamide]",100
11,"Cn1c(Nc2cc(CNC(=O)C3(C)CCCO3)ccc2Cl)nc2cc(C(=O)Nc3ccc(Br)cc3)ccc21 (stereo not drawn) [Example 49, N-(4-Bromophenyl)-2-{2-chloro-5-[(2-methyl-2-tetrahydrofurylamido)-methyl]phenylamino}-1-methylbenzimidazole-5-carboxamide]",100
12,"Cn1c(Nc2cc(CNC(=O)C3(CN)CC3)ccc2Cl)nc2cc(C(=O)Nc3ccc(Br)cc3)ccc21 [Example 50, 2-(5-{[1-(Aminomethyl)cyclopropylamido]methyl}-2-chlorophenylamino)-N-(4-bromophenyl)-1-methylbenzimidazole-5-carboxamide]",100
13,"Cn1c(Nc2cc(CNC(=O)C3(C)CCC(F)(F)CC3)ccc2Cl)nc2cc(C(=O)Nc3ccc(Br)cc3)ccc21 [Example 51, N-(4-Bromophenyl)-2-{2-chloro-5-[(4,4-difluoro-1-methylcyclohexyl-amido)methyl]phenylamino}-1-methylbenzimidazole-5-carboxamide]",94
14,"Cn1c(Nc2cc(CNC(=O)C3(C(F)(F)F)CC3)ccc2Cl)nc2cc(C(=O)NCCOC(C)(C)C)ccc21 [Example 52, N-(2-tert-Butoxyethyl)-2-{2-chloro-5-[(1-trifluoromethylcyclopropyl-amido)methyl]phenylamino}-1-methylbenzimidazole-5-carboxamide]",96
15,"Cn1c(Nc2cc(CNC(=O)C3(C(F)(F)F)CC3)ccc2Cl)nc2cc(C(=O)NCCCC(F)(F)F)ccc21 [Example 53, 2-{2-Chloro-5-[(1-trifluoromethylcyclopropylamido)methyl]phenylamino}-1-methyl-N-(4,4,4-trifluorobutyl)benzimidazole-5-carboxamide]",100
16,"Cn1c(Nc2cc(CNC(=O)C3(C(F)(F)F)CC3)ccc2Cl)nc2cc(C(=O)NC3CCC(F)(F)CC3)ccc21 [Example 54, 2-{2-chloro-5-[(1-trifluoromethylcyclopropylamido)methyl]phenylamino}-N-(4,4-difluorocyclohexyl)-1-methylbenzimidazole-5-carboxamide]",98
17,"CN1CCCC1CCNC(=O)c1ccc2c(c1)nc(Nc1cc(CNC(=O)C3(C(F)(F)F)CC3)ccc1Cl)n2C (stereo not drawn) [Example 55, 2-{2-chloro-5-[(1-trifluoromethylcyclopropylamido)methyl]phenylamino}-1-methyl-N-[2-(1-methyl-2-pyrrolidinyl)ethyl]benzimidazole-5-carboxamide]",68
